Legend:
[1] = system: Arabidopsis thaliana plants (col-0); assay: Continuous in situ chlorophyll fluorescence imaging of ΦII with white actinic LED after coronatine spraying; format: in vivo; conditions: 5 μM sprayed
Procedure: (§1) Arabidopsis thaliana plants (col-0) were grown on soil at 22° C. day temperature and 18° C. night temperature, 50% humidity and an intensity of μmol photons m^−2 s^−1 with an 16:8 day:night cycle. Chlorophyll a fluorescence images of steady state (FS) and the fluorescence maximum at steady state (FM′) were collected at growth light intensity and in the absence or presence of saturating illumination, respectively. These images were used to generate images of ΦII, a measure of photosynthetic efficiency on the day of and after treatment (by spraying) with 5 μM coronatine (cor) or water (control). Coronatine is a compound produced by a bacterial plant pathogen. As a chemical analog of jasmonic acid, it elicits a stress response, which includes differential induction and repression of classes of photosynthesis associated genes (PAGs). To determine if there were immediate and/or sustained effects on photosynthesis, imaging was performed discontinuously in an imager that used monochromatic (red) actinic light or continuously in situ in a growth chamber outfitted with a white actinic LED imaging system. For discontinuous imaging, plants were maintained in the growth chamber where they were treated and transferred to and from the fluorescence imager for measurements. For in situ imaging, the plants were allowed to readjust after transfer to the new chamber with white LED lighting for at least 24 hours prior to treatment and were kept in the chamber for the duration of experiment.
Imaging in situ with white LED actinic illumination minimized the stress of moving a plant from its growth environment to the instrument and with automated image capture facilitated collection of data at higher time resolution (FIG. 10). […] The effect is also heterogeneous, more strongly observed in some leaves or not occurring at all in other (younger) leaves.

[2] = system: Arabidopsis thaliana plants (col-0); assay: Discontinuous chlorophyll fluorescence imaging of ΦII with red actinic light after coronatine spraying; format: in vivo; conditions: 5 μM sprayed, monochromatic (red) actinic light, 1, 4, 8 and 24 hours after treatment
Procedure: as §1, with “To determine if there were immediate and/or sustained effects on photosynthesis, imaging was performed discontinuously in an imager that used monochromatic (red) actinic light or continuously in situ in a growth chamber outfitted with a white actinic LED imaging system.” left out

SMILES: CC[C@H]1C=C(C(=O)N[C@@]2(C(=O)O)C[C@@H]2CC)[C@H]2CCC(=O)[C@H]2C1 [coronatine]
- photosynthetic efficiency (ΦII) effect ([1]; in situ imaging, second day after treatment (more recent studies, not shown)): the effect was not observed
- photosynthetic efficiency (ΦII) ([1]; white LED in situ imaging, early morning on the day after treatment (21 hours)): large decrease in photosynthetic efficiency
- photosynthetic efficiency (ΦII) effect ([1]; white LED in situ imaging, mid-morning on the day after treatment (25 hours)): almost completely disappears
- ΦII (photosynthetic efficiency), treated vs untreated plants [2]: no differences between treated and untreated plants

Reference: patent publication US9429521B2, “Plant phenometrics systems and methods and devices related thereto” (BOARD OF TRUSTEES OF MICHIGAN STATE UNIVERSITY, priority 2012, dated 2016)
